# Measured values reported in patent publication US4971974A, “Benzothiophenes as appetite suppressants” (Neurex Corporation, priority 1988, dated 1990).
# Key:
# [1] = Food intake in food-deprived rats after ip injection (Example 1); format: in vivo; details: for Post-Drug Food Intake, 0-1 hr / Post-Drug Food Intake, 1-2 hr / Post-Drug Food Intake, 2-6 hr / Post-Drug Food Intake, 6-8 hr / Post-Drug Food Intake, 8-24 hr / Cumulative Food Intake, 1 hr / Cumulative Food Intake, 2 hr / Cumulative Food Intake, 6 hr / Cumulative Food Intake, 8 hr / Cumulative Food Intake, 24 hr: mean ± SD; for Post-Drug Food Intake, 0-1 hr / Cumulative Food Intake, 1 hr: control 5.3 ± 1.3; for Post-Drug Food Intake, 1-2 hr: control 0.6 ± 0.7; for Post-Drug Food Intake, 2-6 hr: control 2.5 ± 1.6; for Post-Drug Food Intake, 6-8 hr: control 2.0 ± 1.0; for Post-Drug Food Intake, 8-24 hr: control 20.8 ± 1.7; for Cumulative Food Intake, 2 hr: control 5.9 ± 1.2; for Cumulative Food Intake, 6 hr: control 8.4 ± 0.9; for Cumulative Food Intake, 8 hr: control 10.4 ± 1.6; for Cumulative Food Intake, 24 hr: control 31.2 ± 2.1
# Protocol: Forty-eight 70-to-80-day-old male rats (Bantin & Kingman, Fremont, Calif.) were housed singly in suspended cages, and were acclimated to the laboratory setting for a period of 12 days prior to testing. During this time, they were allowed ad libitum access to food (Ralston-Purina #5001M) and water. The room was kept at 24°-27° C. and maintained on a 12:12-hr light:dark schedule (0700-1900 h).
# Animals matched by body weight and mean daily food intake were assigned to 4 groups (n=12/group). Food jars were removed at 0900 h. Twenty-four hours later, rats were injected with either sterile 0.9% saline or saline containing 1,2,3,4-tetrahydrobenzo[b]thieno[2,3-c]pyridine HCl (5, 10, or 25 mg/kg, ip). Pre-weighed food jars containing meal (Ralston-Purina #5001M) were presented immediately post-injection. These were weighed at intervals over the next 24 hours, and food consumption was calculated for each interval. Animals were provided with water in quantities sufficient for ad libitum consumption throughout the experiment.
# To assess the duration of the drug-induced anorexia and rebound feeding behavior, food intake was measured at several time intervals after drug administration.
# [2] = Acute toxicity studies in mice; details: mouse, in vivo, ip, intraperitoneally
# Protocol: In acute toxicity studies in mice, 1,2,3,4-tetrahydrobenzo[b]thieno[2,3-c]pyridine yields LD50 values in excess of 100 mg/kg when administered intraperitoneally and 100 mg/kg when administered by the oral route.
# [3] = U.S. Pat. Nos. 3,636,218; 3,518,278; Miller et al; cited from earlier work
# [4] = Alteration of macronutrient preference in rats, 75% or 25% carbohydrate test diets (Example 2); format: in vivo, rats (Sprague-Dawley); details: rat; for cumulative amount of 25% Carbohydrate diet consumed, 1 hr / cumulative amount of 25% Carbohydrate diet consumed, 2 hr / cumulative amount of 75% Carbohydrate diet consumed, 1 hr / cumulative amount of 75% Carbohydrate diet consumed, 2 hr: mean±SEM; for cumulative amount of 25% Carbohydrate diet consumed, 1 hr: saline 6.4 ± 0.5; for cumulative amount of 25% Carbohydrate diet consumed, 2 hr: saline 7.5 ± 1.7; for cumulative amount of 75% Carbohydrate diet consumed, 1 hr: saline 6.6 ± 0.5; for cumulative amount of 75% Carbohydrate diet consumed, 1 hr / cumulative amount of 75% Carbohydrate diet consumed, 2 hr: significant p < 0.01; for cumulative amount of 75% Carbohydrate diet consumed, 2 hr: saline 8.4 ± 1.6
# Protocol: Sixty adult male rats (Sprague-Dawley, 225-300 g) were acclimated to laboratory conditions for a period of 10 days, during which they were allowed unrestricted access to food (Ralston-Purina #5001M) and water. All subjects were housed in individual cages, and the animal facility was maintained on a 12:12 hour light:dark cycle at 24°-27° C.
# Animals were assigned to 6 groups (10 per group), then allowed to consume, ad libitum, one of two iso-nitrogenous test diets containing either 75% or 25% carbohydrate. After 3 days, food jars were removed. After an additional 24 hours, rats were administered either saline or 1,2,3,4-tetrahydrobenzo[b]thieno[2,3-c]pyridine (1.5 or 3.0 mg/Kg body weight), then given immediate access to the test diets. Data listed in Table 3 indicate the cumulative amount in grams (mean±SEM) of each diet consumed by the experimental and control groups during the subsequent 2-hour period.
# [5] = in vivo; cited from earlier work
# [6] = rat, 5 mg/Kg ip, significant p < 0.02
# [7] = rat, 10 mg/Kg ip, significant p < 0.02
# [8] = rat, 25 mg/Kg ip, significant p < 0.05
# [9] = rat, 25 mg/Kg ip, significant p < 0.02
smiles,measurement,setting,value
"c1ccc2c3c(sc2c1)CNCC3 [1,2,3,4-tetrahydrobenzo[b]thieno[2,3-c]pyridine]","Post-Drug Food Intake, 0-1 hr","[1]; rat, 5 mg/Kg ip, significant p < 0.05",1.3 ± 0.6 gm
same,"Post-Drug Food Intake, 1-2 hr","[1]; rat, 5 mg/Kg ip",1.2 ± 0.6 gm
same,"Post-Drug Food Intake, 2-6 hr","[1]; rat, 5 mg/Kg ip",4.9 ± 1.6 gm
same,"Post-Drug Food Intake, 6-8 hr","[1]; rat, 5 mg/Kg ip",1.8 ± 1.3 gm
same,"Post-Drug Food Intake, 8-24 hr","[1]; rat, 5 mg/Kg ip",18.2 ± 1.9 gm
same,"Cumulative Food Intake, 1 hr",[1]; [6],1.3 ± 0.6 gm
same,"Cumulative Food Intake, 2 hr",[1]; [6],2.5 ± 0.7 gm
same,"Cumulative Food Intake, 6 hr","[1]; rat, 5 mg/Kg ip",7.4 ± 1.6 gm
same,"Cumulative Food Intake, 8 hr","[1]; rat, 5 mg/Kg ip",9.2 ± 1.6 gm
same,"Cumulative Food Intake, 24 hr","[1]; rat, 5 mg/Kg ip",27.4 ± 2.8 gm
same,food consumption in rats,"[1]; rat, 5 mg/kg intraperitoneally",significantly reduce food consumption in rats
same,"Post-Drug Food Intake, 0-1 hr","[1]; rat, 10 mg/Kg ip, significant p < 0.05",0.9 ± 0.9 gm
same,"Post-Drug Food Intake, 1-2 hr","[1]; rat, 10 mg/Kg ip",1.1 ± 0.8 gm
same,"Post-Drug Food Intake, 2-6 hr","[1]; rat, 10 mg/Kg ip",4.3 ± 1.8 gm
same,"Post-Drug Food Intake, 6-8 hr","[1]; rat, 10 mg/Kg ip",1.4 ± 0.6 gm
same,"Post-Drug Food Intake, 8-24 hr","[1]; rat, 10 mg/Kg ip",19.2 ± 2.8 gm
same,"Cumulative Food Intake, 1 hr",[1]; [7],0.9 ± 0.9 gm
same,"Cumulative Food Intake, 2 hr",[1]; [7],2.0 ± 1.1 gm
same,"Cumulative Food Intake, 6 hr","[1]; rat, 10 mg/Kg ip",6.3 ± 2.3 gm
same,"Cumulative Food Intake, 8 hr","[1]; rat, 10 mg/Kg ip",7.7 ± 2.5 gm
same,"Cumulative Food Intake, 24 hr",[1]; [7],26.8 ± 2.8 gm
same,"Post-Drug Food Intake, 0-1 hr",[1]; [8],0.1 ± 0.2 gm
same,"Post-Drug Food Intake, 1-2 hr","[1]; rat, 25 mg/Kg ip",0.1 ± 0.2 gm
same,"Post-Drug Food Intake, 2-6 hr","[1]; rat, 25 mg/Kg ip",2.1 ± 2.3 gm
same,"Post-Drug Food Intake, 6-8 hr","[1]; rat, 25 mg/Kg ip",0.9 ± 0.7 gm
same,"Post-Drug Food Intake, 8-24 hr",[1]; [8],17.1 ± 2.1 gm
same,"Cumulative Food Intake, 1 hr",[1]; [9],0.1 ± 0.2 gm
same,"Cumulative Food Intake, 2 hr",[1]; [9],0.2 ± 0.3 gm
same,"Cumulative Food Intake, 6 hr",[1]; [9],2.2 ± 2.4 gm
same,"Cumulative Food Intake, 8 hr",[1]; [9],3.0 ± 2.6 gm
same,"Cumulative Food Intake, 24 hr",[1]; [9],20.1 ± 2.6 gm
same,cumulative food intake at 24 hours vs controls,"[1]; rat, 25 mg/kg ip, 24 hours",substantially lower cumulative food intake at 24 hours post-injection than controls
same,"food consumption, dose relation","[1]; rat, 5, 10, 25 mg/kg ip",dose-related decrement in food consumption
same,rebound feeding in the 1-6 hr interval,"[1]; rat, 5 and 10 mg/kg ip, not statistically significant",varying degrees of rebound feeding
same,food intake at 2 hours post-injection vs control,"[1]; rat, all experimental groups (5, 10, 25 mg/kg ip), 2 hours",significantly lower than control values
same,food intake in the first hour after drug administration,"[1]; rat, ip, first hour",highly significant fall in food intake
same,LD50,[2],> 100 mg/kg
same,central nervous system depression,[3],CNS depressants and tranquilizing agents
same,"cumulative amount of 25% Carbohydrate diet consumed, 1 hr",[4]; 1.5 mg/Kg,5.6 ± 0.3 grams
same,"cumulative amount of 25% Carbohydrate diet consumed, 2 hr",[4]; 1.5 mg/Kg,7.6 ± 1.0 grams
same,"cumulative amount of 75% Carbohydrate diet consumed, 1 hr",[4]; 1.5 mg/Kg,4.4 ± 0.2 grams
same,"cumulative amount of 75% Carbohydrate diet consumed, 2 hr",[4]; 1.5 mg/Kg,5.8 ± 0.8 grams
same,"cumulative amount of 25% Carbohydrate diet consumed, 1 hr",[4]; 3.0 mg/Kg,5.4 ± 0.3 grams
same,"cumulative amount of 25% Carbohydrate diet consumed, 2 hr",[4]; 3.0 mg/Kg,7.0 ± 1.1 grams
same,"cumulative amount of 75% Carbohydrate diet consumed, 1 hr",[4]; 3.0 mg/Kg,4.5 ± 0.2 grams
same,"cumulative amount of 75% Carbohydrate diet consumed, 2 hr",[4]; 3.0 mg/Kg,6.0 ± 1.3 grams
same,consumption of low carbohydrate diet vs controls,"[4]; 1.5 or 3.0 mg/Kg, 25% carbohydrate",consumed equivalent quantities of the low carbohydrate diet
same,consumption of high carbohydrate diet vs controls,"[4]; 1.5 or 3.0 mg/Kg, 75% carbohydrate",consumed significantly less of the high carbohydrate diet than did controls
O=C(NCCN1CCOCC1)c1sc2ccccc2c1Br [3-bromo-2-(N-morpholinoethyl)benzo[b]thiophene carboximide],anticonvulsant properties,[5],anticonvulsant properties
same,antidepressant activity,[5],antidepressant activity
